Patent US11066409B2, “Bicyclic nitrogen-containing heterocyclic derivatives and pharmaceutical composition comprising the same” (Shionogi & Co., Ltd., priority 2016, dated 2021)
pIC50: −log10 of the molar value.

Key:
[1] = biological target: human P2X7 receptor (Homo sapiens (Human), UniProt Q99572, R270H); assay: Evaluation of a human P2X7 receptor inhibitory activity (Yo-Pro uptake, BzATP stimulation, FLIPR TETRA); assay type: cell-based; settings: 1321N1 cells stably expressing human P2X7 receptor, Yo-Pro fluorescence
human P2X7 receptor, sequence (Q99572 whole entry R270H): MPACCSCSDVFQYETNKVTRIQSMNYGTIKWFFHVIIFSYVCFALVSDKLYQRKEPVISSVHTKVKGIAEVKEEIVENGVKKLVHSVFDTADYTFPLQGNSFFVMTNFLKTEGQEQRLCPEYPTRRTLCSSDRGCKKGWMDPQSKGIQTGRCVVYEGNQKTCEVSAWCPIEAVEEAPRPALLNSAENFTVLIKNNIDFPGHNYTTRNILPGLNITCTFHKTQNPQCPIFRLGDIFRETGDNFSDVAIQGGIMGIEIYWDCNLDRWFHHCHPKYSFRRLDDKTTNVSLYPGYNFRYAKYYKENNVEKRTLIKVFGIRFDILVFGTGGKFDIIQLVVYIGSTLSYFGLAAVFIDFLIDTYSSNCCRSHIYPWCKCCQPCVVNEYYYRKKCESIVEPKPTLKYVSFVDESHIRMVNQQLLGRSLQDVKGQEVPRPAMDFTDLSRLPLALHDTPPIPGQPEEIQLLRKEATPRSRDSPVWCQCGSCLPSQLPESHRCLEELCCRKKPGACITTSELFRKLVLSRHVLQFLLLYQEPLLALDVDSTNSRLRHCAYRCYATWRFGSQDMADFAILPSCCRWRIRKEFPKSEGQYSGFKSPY
How it was run: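 1321N1 cells stably expressing human P2X7 (T606C/G952A SNP variant) in HBSS/HEPES pH 7.4–7.5 were loaded with Yo-Pro and stimulated with BzATP on FLIPR TETRA. Compound was added 8 min later and fluorescence followed for 20 min. Inhibition scaled between no-compound (0%) and reference compound (100%); IC50 by logistic fit, reported in bins A–D.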

[2] = system: partial sciatic nerve ligation model in rats; assay: Analgesic effect in a Seltzer model (partial sciatic nerve ligation), mechanical allodynia by von Frey filaments; assay type: in vivo; settings: 1 h, rat, oral, reversal of mechanical allodynia, approximately 1 to 5 hours after administration
Excerpt: Preparation of Partial Sciatic Nerve Ligation Model in Rats
Rats were anaesthetized using isoflurane/O2 inhalation anaesthesia. After induction of anesthesia, the left thigh was shaved. An incision was made in the skin just below the hip bone. The muscle was bluntly dissected to expose the sciatic nerve. About one half (½) of the sciatic nerve thickness was tightly ligated with a nylon thread and the wound was closed. The right thigh was used as a sham-operated control. The right thigh underwent an identical procedure with the left hind limb, however, the sciatic nerve was not manipulated or ligated.
Two weeks after nerve ligation, the effect on mechanical allodynia was assessed using a series of von Frey filaments. For habituation, the rats were placed into a plastic cage on a wire mesh bottom. Von Frey filaments (0.4 to 26 g) were applied to the plantar surface of the rat hind paws from the wire mesh side, and the value of the filament pressure at which the paw was withdrawn was used as a pain threshold. The measurement of mechanical sensitivity of the right and left hind paws was performed to obtain predose mechanical sensitivity. The rats showing the threshold change from 0.6 to 2 g (in nerve ligated side) and 8 to 15 g (in sham operated side) were used in the experiments. On the day before the experiment, the rats were evaluated with a series of von Frey filaments to familiarize them with the test procedure. The adopted animal was administrated with the compounds of the present invention. The compounds of the present invention were homogenized with mortar and pestle and suspended or diluted in 0.5% Methyl Cellulose to prepare 0.03-100 mg/2 mL/kg suspension and orally administered to rat using a syringe attached with a sonde. Post-dose mechanical sensitivities of the right and left hind paws were measured at approximately 1 to 5 hours after drug administration. Percent reversal of mechanical allodynia for each rat was calculated using the following formula. The analgesic effects of the compounds were compared.

[3] = biological target: human PXR (Homo sapiens (Human), UniProt O75469); assay: Evaluation of activation of human pregnane X receptor (PXR), DPX2 cells; assay type: cell-based; settings: 48 hours, emission intensity divided by fluorescence intensity; for PXR 10 μM: compound 10 μM; for PXR 50 μM: compound 50 μM
human PXR, sequence (O75469 whole entry): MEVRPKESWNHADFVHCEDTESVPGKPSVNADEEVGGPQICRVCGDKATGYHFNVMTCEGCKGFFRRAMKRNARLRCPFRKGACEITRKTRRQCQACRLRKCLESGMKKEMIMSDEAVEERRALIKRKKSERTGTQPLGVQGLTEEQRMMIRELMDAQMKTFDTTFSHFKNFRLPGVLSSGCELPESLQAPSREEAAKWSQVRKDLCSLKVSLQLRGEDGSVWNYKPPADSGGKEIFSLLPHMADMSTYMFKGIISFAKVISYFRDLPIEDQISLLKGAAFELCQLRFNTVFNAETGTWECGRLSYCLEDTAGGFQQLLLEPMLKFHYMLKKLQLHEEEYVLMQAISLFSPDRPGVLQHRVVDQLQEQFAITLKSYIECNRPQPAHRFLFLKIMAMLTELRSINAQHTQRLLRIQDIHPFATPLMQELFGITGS
Description: A Human PXR activation (Puracyp, Inc.) kit was used for evaluation.
DPX2 cells expressing human PXR were seeded in a 96-well plate at a concentration of 40000 cells/well and cultured at 37° C. under 5% carbon dioxide for 24 hours (medium: culture medium for DPX2 cells containing 10% fetal bovine serum, antibiotics, sodium pyruvate, D-glucose, and phenol red). After culture for 24 hours, a DMSO solution of the compound of the present invention was diluted with a medium (dosing medium for DPX2 cells containing 10% fetal bovine serum, D-glucose, antibiotics, sodium pyruvate, and L-glutamine) so that the final concentration was 10 and 50 μM, and a rifampicin DMSO solution as a positive control drug was 0.2, 1, 2, and 20 μM. The medium was removed from the 96-well plate after culture for 24 hours. 100 μL of the solution of the compound of the present invention and 100 μL of the rifampicin solution prepared were added to each well, and cultured for 48 hours. The medium was removed from the 96-well plate after culture for 48 hours. 100 μL of each reaction mixture obtained by adding 5.25 μL of CellTiter-Fluor to 10.5 mL of TubeE was filled therein. The plate was set in a plate reader (PerkinElmer, Inc.) after culture for 1 hour to measure the fluorescence intensity at an interval of 0.1 seconds per well. The plate was taken out. 100 μL of a solution obtained by adding ONE-Glo Assay Substrate to ONE-Glo Assaybuffer was added to each well. After 2 minutes from the addition of the solution, the plate was set in the plate reader to measure the […] at an interval of 2 seconds per well. The PXR activity of the product of the present invention was a value obtained by dividing the emission intensity by the fluorescence intensity.

SMILES	pIC50 [1]	inhibition in vivo at 3 mg/kg [2] [%]	pIC50 ([1]; class symbols)	PXR 10 μM [3]	PXR 50 μM [3]	inhibition in vivo at 1 mg/kg [2] [%]
Cc1cc2c(cc1Nc1nc(=O)c(F)c3n1C(c1cc(F)cc(F)c1)CC3)COC2 (stereo not shown) [Compound I-0102]	7.96	55	–	–	–	–
COc1ccc(NC2=NC(=O)N(C)C3=NCC(c4cc(F)c(F)c(F)c4)N23)c(C)c1 (stereo not shown) [Compound I-0135]	–	52	7.00 to 8.00	3	9	–
COc1ccc(C)c(NC2=NC(=O)N(C)C3=NCC(c4cc(F)c(F)c(F)c4)N23)c1 (stereo not shown) [Compound I-0142]	–	–	7.00 to 8.00	5.8	13	–
Cc1ccc(C#N)cc1NC1=NC(=O)N(C)C2=NCC(c3cc(F)c(F)c(F)c3)N12 (stereo not shown) [Compound I-0145]	7.72	–	7.00 to 8.00	1.9	6.2	58
COc1ccc(NC2=NC(=O)N(C)C3=NCC(c4cc(F)c(F)c(F)c4)N23)c(C)c1F (stereo not shown) [Compound I-0147]	7.62	–	7.00 to 8.00	–	–	33
COc1cc(NC2=NC(=O)N(C)C3=NCC(c4cc(F)c(F)c(F)c4)N23)c(C)cc1F (stereo not shown) [Compound I-0149]	7.68	–	–	–	–	41
CCc1nc(OC)ccc1NC1=NC(=O)N(C)C2=NCC(c3cc(F)c(F)c(F)c3)N12 (stereo not shown) [Compound I-0154]	7.77	–	–	7.9	15.8	44
COCCOc1ccc(C)c(NC2=NC(=O)N(C)C3=NCC(c4cc(F)c(F)c(F)c4)N23)c1 (stereo not shown) [Compound I-0158]	7.57	–	–	1.2	4.7	47
Cc1ccc(CO)cc1NC1=NC(=O)N(C)C2=NCC(c3cc(F)c(F)c(F)c3)N12 (stereo not shown) [Compound I-0161]	7.72	–	–	1.2	2.5	51
COc1nc(C)c(NC2=NC(=O)N(C)C3=NCC(c4cc(F)c(F)c(F)c4)N23)cc1F (stereo not shown) [Compound I-0162]	7.72	–	–	6.7	20	–
Cc1cc2c(cc1NC1=NC(=O)N(C)C3=NCC(c4cc(F)c(F)c(F)c4)N13)COC2 (stereo not shown) [Compound I-0164]	7.55	–	–	10.6	25	47
Cc1cc(F)c(CO)cc1NC1=NC(=O)N(C)C2=NCC(c3cc(F)c(F)c(F)c3)N12 (stereo not shown) [Compound I-0168]	–	–	–	0.9	1.7	53
Cc1ccc(OCCO)cc1NC1=NC(=O)N(C)C2=NCC(c3cc(F)c(F)c(F)c3)N12 (stereo not shown) [Compound I-0171]	–	–	–	1.2	2.5	52
CCc1ccc(CO)cc1NC1=NC(=O)N(C)C2=NCC(c3cc(F)c(F)c(F)c3)N12 (stereo not shown) [Compound I-0176]	7.70	–	–	1.1	2	–
CN1C(=O)N=C(NCc2ccccc2)N2C1=NCC2c1cc(F)c(F)c(F)c1 (stereo not shown) [Compound I-0188]	8.12	–	–	1.3	3.5	–
Cc1ccc(OC(F)F)cc1NC1=NC(=O)N(C)C2=NCC(c3cc(F)c(F)c(F)c3)N12 (stereo not shown) [Compound I-0192]	7.74	–	–	7.9	15	50
COCc1ccc(C)c(NC2=NC(=O)N(C)C3=NCC(c4cc(F)c(F)c(F)c4)N23)c1 (stereo not shown) [Compound I-0201]	7.59	–	–	4	13.5	51
